≈ marks a conversion by molar mass, not a printed value. Counter-ions that a name gives are not always drawn. Like-named read-outs stand apart in the source and are kept apart here. Where only a bound is given, the exact number is not on record here.

The record followed here is US6617332B1, “Tan-1057 derivatives” (Bayer Aktiengesellschaft, priority 1998, dated 2003).

Data set [1] is described as follows: Neutral Red vitality test using J774.A1 cells. The following applies: mouse; J774.A1 murine macrophage cells, 72 hours with substance; vitality reduced to 50% of untreated control. Type of data set: cell-based, murine. The method, then: (§1) Compatibility tests of the exemplary compounds were carried out using cultures of eukaryotic cells. Hepatocytes (HepG2) and murine macrophage cells (J774.A1) were used as indicator for organ-specific toxicity. The murine macrophage cell line used is a particularly sensitive indicator for toxic effects.
(§2) In each case 1.2×10^4 cells were incubated at 37° C. for 24 hours. Test substances were added at different concentrations, and the cells were incubated for another 72 hours. The cells were then treated with 50 μl of Neutral Red solution (Sigma, No. N 2889) for 2 hours, washed with PBS medium and denaturated using an ethanol/glacial acetic acid mixture.
(§3) The cultures were measured in an Elisa reader at 540 nm and 630 nm. The IC50 values were extrapolated and indicate at which concentration the vitality of the cells, measured by the uptake of Neutral Red, is reduced to 50%, compared to untreated control cells.

Data set [2] concerns S. aureus 133. The data set can be described thus: Determination of the minimum inhibitory concentration (MIC), liquid dilution test. Type of data set: cell-based. The following applies: Staphylococcus aureus. The method, then: (§4) The MIC was determined using the liquid dilution test. Overnight cultures of the test germs (S. aureus 133) in Isosensitest bouillon were diluted 1:1000 with foetal calf serum (FCS) or Isosensitest bouillon and incubated with dilutions of the test substances (successive dilutions of 1:2).
The cultures were incubated at 37° C. for 18-24 hours. In each case the lowest concentration of substance at which no visible bacterial growth took place, was defined as MIC.

Data set [3] is described as follows: Vitality of HepG2 cells (Alamar Blue fluorescence). The following applies: human, HepG2 liver cells, HepG2, 40-48 hours, highest test concentration 10 μg/ml. Type of data set: cell-based. On the procedure: (§5) The vitality and functionality of human HepG2 liver cells were examined after treatment with exemplary compounds. In each case 2×10^4−1×10^5 cells were incubated in RPMI 1640 (Whittacker) with 10% heat-inactivated foetal calf serum (Gibco) at 37° C. for 40-48 hours. The incubation volume of 200 μl contained the test substances in concentrations of 10, 2 and 0.4 μg/ml.
The vitality was examined after addition of 20 μl Alamar Blue (Biosource, Art. No. DAL 1100) by measuring the fluorescence (excitation: 544 nm, emission: 590 nm).
(The colour change of resazurin is a common sign of viable cells or microbes.)

The test system of data set [4] is α2-macroglobulin secretion of HepG2 cells. The data set can be described thus: Functionality of HepG2 cells: secretion of α2-macroglobulin (ELISA). Type of data set: cell-based. The following applies: human, HepG2 liver cells, HepG2, 40-48 hours, highest test concentration 10 μg/ml. On the procedure: as §5
(§6) The functionality of the HepG2 cells was examined by measuring the secretion of apo B100 and α2-macroglobulin after treatment. To this end, the protein content of the culture supernatants was determined by ELISA after incubation for 40-48 hours. Apo B100 was bound using rabbit ahLDL (1 mg/ml) and quantified using peroxidase-conjugated monoclonal antibodies (ahLDL_POD), with addition of the substrate TMB/H2O2. The optical density was measured at 450 nm.
To determine α2-macroglobulin, the ELISA system from Biodesign (Art.No. H 45205M) was used. Quantification was likewise carried out using the substrate TMB/H2O2, and measuring the optical density at 450 nm.

In data set [5] the test system is apo B100 secretion of HepG2 cells. The experiment in a line: Functionality of HepG2 cells: secretion of apo B100 (ELISA). The following applies: human, HepG2 liver cells, HepG2, 40-48 hours, highest test concentration 10 μg/ml. Type of data set: cell-based. The method, then: as §5, §6
Data set [6] concerns TAN 1057 A,B-resistant S. aureus 133. The experiment in a line: MIC test with TAN 1057 A,B-resistant isolates from stepwise selection. Type of data set: cell-based. The following applies: Staphylococcus aureus. The method, then: as §4
Bacteria of the strain S. aureus 133 were incubated with different concentrations of TAN 1057 A,B for 24 hours. […] This process was repeated for several days, selecting step by step bacteria having increased resistance to TAN 1057 A,B. The MIC of highly resistant S. aureus 133 bacteria was >100 μg/ml (initial MIC: <0.1 μg/ml). The bacteria from this selection series, having an MIC of <0.1, 0.8, 25, 100 and >100 μg/ml, were used for tests. It is thus possible to identify TAN 1057 A,B derivatives having antibacterial activity against TAN 1057 A,B-resistant cells.
The S. aureus 133 isolates with medium and high resistance to TAN 1057 A,B were tested in comparison to the derivatives of the invention.

In data set [7] the test system is S. aureus 133. The experiment in a line: Test of antibacterial activity in vivo (infected mice, survival). The following applies: mice infected i.p. with 1×10^6 S. aureus 133 in 5% mucine; intravenous administration 30 minutes after infection. The method, then:
Mice were infected with 1×10^6 bacteria of the strain S. aureus 133 in 5% mucine (i.p.) and treated by intravenous administration of the test substances 30 minutes after the infection. Without treatment, all infected animals died. The therapeutic doses for TAN 1057 A,B and the compound of Example 4 at which all infected animals survived (=ED100) was 1 mg/kg for both substances.

Data set [8] is described as follows: Acute toxicity in mice (LD50). The following applies: mouse, in vivo, ip, intraperitoneal administration, dose at which 50% of treated mice survive. On the procedure: The acute toxicity of the substances was determined by determining the dose at which 50% of the treated mice survive (=LD50). Following intraperitoneal administration of the test substances, the LD50 for TAN 1057 A,B was 100 mg/kg. The LD50 for the compound of Example 4 was >400 mg/kg.

Another data set has as its system J774.A1 cells. The experiment in a line: Neutral Red vitality test using J774.A1 cells. Type of data set: cell-based, murine. The following applies: compatibility tests with eukaryotic cells: hepatocytes (HepG2) and murine macrophage cells (J774.A1). The method, then:
as §1, §2, §3

Where [9] appears, read: S. aureus 133, overnight culture diluted 1:1000 with foetal calf serum, 37° C., 18-24 hours, lowest concentration without visible growth, read-out: MIC in FCS (S.aureus; μg/ml).
Where [10] appears, read: read-out: MIC, isolate with medium resistance to TAN 1057 A,B.

Usually melting point stands for the temperature, or range, at which the solid turns liquid. As for `CCN(C(=O)C[C@@H](N)CCCNC(=N)N)C1CNC(NC(N)=O)=NC1=O` (stereo partly drawn) (as salt: hydrochloride) [Example 15, (3′S,5R,S)-5-[N-Ethyl-N-(3′-amino-6′-guanidinohexanoyl)amino]-5,6-dihydro-2-ureido-4(1H)-pyrimidone Dihydrochloride], the melting point was 170 to 172 °C.
Broadly, the IC50 is the concentration that inhibits the measured activity by half. High values mean weaker potency in that assay, low ones greater potency in that assay. As a reminder, the MIC is the smallest concentration in the dilution series that meets the test's criterion for growth inhibition. In data set [1], `CN(C(=O)C[C@@H](N)CCCCNC(=N)N)C1CNC(NC(N)=O)=NC1=O` (stereo partly drawn) [Example 1, (3′S,5R,S)-5-[N-Methyl-N-(3′-amino-7′-guanidinoheptanoyl)amino]-5,6-dihydro-2-ureido-4(1H)-pyrimidone Dihydrochloride] yielded an IC50 at 72 h of 3 µg/mL. Besides, the MIC with S. aureus 133 [2] (setting [9]) was found to be 0.2 µg/mL. Besides, the half-inhibitory concentration (IC50) in data set [3], in [4] and in data set [5] was > 10 µg/mL each time.
Molecule `CN(C(=O)CC(N)c1cccc(NC(=N)N)c1)C1CNC(NC(N)=O)=NC1=O` (stereo not drawn) [Example 2, (3′RS,5RS)-5-{N-Methyl-N-[3′-amino-3′-(3-guanidylphenyl)propionyl]amino}-5,6-dihydro-2-ureido-4(1H)-pyrimidone Dihydrochloride] had an IC50 at 72 h in data set [1] of 6 µg/mL. The MIC in the data set with S. aureus 133 [2] (setting [9]) came to 50 µg/mL. The IC50 in data set [3], in data set [4] and in [5] was > 10 µg/mL each time.
By LD50 is commonly meant the dose expected to kill half of the subjects tested. As for `CN(C(=O)C[C@@H](N)CCCN)C1CNC(NC(N)=O)=NC1=O` (stereo partly drawn) [Example 4, (3′S,5R,S)-5-[N-Methyl-N-(3′,6′-diaminohexanoyl)amino]-5,6-dihydro-2-ureido-4(1H)-pyrimidone Dihydrochloride], inhibition in data set [1] was half-maximal at 25 µg/mL (IC50 at 72 h). Besides, the MIC turned out to be 0.4 µg/mL in the data set with S. aureus 133 [2] (setting [9]) and 0.2 µg/mL in data set [6] (setting [10]). Further, the “ED100 (therapeutic dose at which all infected animals survived)” value with S. aureus 133 [7] came to 1 mg/kg. In addition, in [8], the median lethal dose (LD50) was > 400 mg/kg.
`CCNCCC[C@H](N)CC(=O)N(C)C1CNC(NC(N)=O)=NC1=O` (stereo partly drawn) [Example 7, (3′S,5R,S)-5-[N-Methyl-N-(3′-amino-6′-ethylaminohexanoyl)amino]-5,6-dihydro-2-ureido-4(1H)-pyrimidone Dihydrochloride] showed an IC50 at 72 h in data set [1] of 50 µg/mL. The minimum inhibitory concentration (MIC) with S. aureus 133 [2] (setting [9]) amounted to 0.8 µg/mL.
As for `CN(C(=O)C[C@@H](N)CCN)C1CNC(NC(N)=O)=NC1=O` (stereo partly drawn) [Example 8, (3′S,5R,S)-5-[N-Methyl-N-(3′,5′-diaminopentanoyl)amino]-5,6-dihydro-2-ureido-4(1H)-pyrimidone Dihydrochloride], 1.8 µg/mL corresponded to half-maximal inhibition in data set [1] (IC50 at 72 h). In the data set with S. aureus 133 [2] (setting [9]), the MIC came out at 1.6 µg/mL.
Turning to `CN(C(=O)C[C@@H](N)CNC(=N)N)C1CNC(NC(N)=O)=NC1=O` (some centres unmarked) [TAN 1057 A,B, reference compound], in the data set with J774.A1 cells, the “toxicity (in words)” value is “pronounced toxicity in the liver and cells of the immune system”. In data set [1], this molecule yielded a 50% inhibitory concentration (IC50) at 72 h of 0.25 µg/mL (≈ 0.764 µM). Moreover, the MIC with S. aureus 133 [2] (setting [9]) is 0.1 µg/mL (≈ 0.305 µM); with S. aureus 133 [2] (S. aureus 133 before selection with TAN 1057 A,B, read-out: initial MIC), < 0.1 µg/mL; in data set [6] (read-out: MIC of highly resistant S. aureus 133 bacteria), > 100 µg/mL; in [6] (setting [10]) it was 0.8 µg/mL (≈ 2.44 µM). The “ED100 (therapeutic dose at which all infected animals survived)” value with S. aureus 133 [7] is given as 1 mg/kg. Further, the half-maximal inhibitory concentration (IC50) in data set [4] was found to be 7 µg/mL (≈ 21.4 µM). Further, in [8], the LD50 was determined as 100 mg/kg.
